Assay results as given in patent US10385057B2, “Pyrazole compounds and methods of making and using same” (Lundbeck La Jolla Research Center, Inc., priority 2015, dated 2019).

Experiments:
MAGL [1] = target: T1, MAGL (Homo sapiens, UniProt Q99685); test: In vitro competitive activity-based protein profiling, human MAGL; format: biochemical; details: for inhibition at 10 µM: read-out: MAGL % inh. 10 μM (human); for inhibition at 1 µM: read-out: MAGL % inh. 1 μM (human)
T1 construct: human prefrontal cortex or cell membrane fractions for human assays; from tissue
T1 sequence (Q99685 1-303): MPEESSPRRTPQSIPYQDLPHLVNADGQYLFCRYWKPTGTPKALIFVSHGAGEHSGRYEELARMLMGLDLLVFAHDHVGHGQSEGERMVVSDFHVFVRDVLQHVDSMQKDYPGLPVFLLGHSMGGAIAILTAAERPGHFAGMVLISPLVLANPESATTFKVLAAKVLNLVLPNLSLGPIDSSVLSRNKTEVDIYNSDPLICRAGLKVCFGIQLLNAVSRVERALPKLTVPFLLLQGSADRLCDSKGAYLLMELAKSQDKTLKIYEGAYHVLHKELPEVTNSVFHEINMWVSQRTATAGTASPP
Protocol: (§1) In Vitro Competitive Activity-Based Protein Profiling.
(§2) Proteomes (mouse brain membrane fraction or cell lysates for mouse assays; human prefrontal cortex or cell membrane fractions for human assays) (50 μL, 1.0 mg/mL total protein concentration) were preincubated with varying concentrations of inhibitors at 37° C. After 30 min, FP-Rh or HT-01 (1.0 μL, 50 μM in DMSO) was added and the mixture was incubated for another 30 min at 37° C. Reactions were quenched with SDS loading buffer (15 μL—4×) and run on SDS-PAGE. Following gel imaging, serine hydrolase activity was determined by measuring fluorescent intensity of gel bands corresponding to MAGL and FAAH using ImageJ 1.43u software.

FAAH [2] = target: T2, FAAH (Homo sapiens, UniProt O00519); test: In vitro competitive activity-based protein profiling, human FAAH; format: biochemical; details: for inhibition at 10 µM: read-out: FAAH % inh. 10 μM (human); for inhibition at 1 µM: read-out: FAAH % inh. 1 μM (human)
T2 construct: human prefrontal cortex or cell membrane fractions for human assays; from tissue
T2 sequence (O00519 1-579): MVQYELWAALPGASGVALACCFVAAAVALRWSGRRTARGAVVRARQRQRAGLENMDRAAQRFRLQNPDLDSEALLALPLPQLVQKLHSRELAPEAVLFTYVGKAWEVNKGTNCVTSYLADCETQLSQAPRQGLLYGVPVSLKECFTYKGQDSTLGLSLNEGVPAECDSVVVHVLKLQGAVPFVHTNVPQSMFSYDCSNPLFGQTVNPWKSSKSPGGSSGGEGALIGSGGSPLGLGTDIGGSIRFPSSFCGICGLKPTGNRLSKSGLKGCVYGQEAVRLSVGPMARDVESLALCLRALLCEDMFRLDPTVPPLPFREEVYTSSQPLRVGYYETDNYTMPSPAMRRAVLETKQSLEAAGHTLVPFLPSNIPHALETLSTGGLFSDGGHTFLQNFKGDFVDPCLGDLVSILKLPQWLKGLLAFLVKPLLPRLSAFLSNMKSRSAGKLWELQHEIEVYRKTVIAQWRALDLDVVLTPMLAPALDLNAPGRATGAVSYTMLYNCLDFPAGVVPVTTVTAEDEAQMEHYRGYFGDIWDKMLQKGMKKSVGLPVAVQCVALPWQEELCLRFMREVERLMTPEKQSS
Protocol: as §1, §2

FAAH [3] = target: T3, FAAH (Mus musculus, UniProt O08914); test: In vitro competitive activity-based protein profiling, mouse FAAH; format: biochemical; details: for inhibition at 1 µM: read-out: FAAH % inh. 1 μM (mouse)
T3 construct: mouse brain membrane fraction or cell lysates for mouse assays; from tissue
T3 sequence (O08914 1-579): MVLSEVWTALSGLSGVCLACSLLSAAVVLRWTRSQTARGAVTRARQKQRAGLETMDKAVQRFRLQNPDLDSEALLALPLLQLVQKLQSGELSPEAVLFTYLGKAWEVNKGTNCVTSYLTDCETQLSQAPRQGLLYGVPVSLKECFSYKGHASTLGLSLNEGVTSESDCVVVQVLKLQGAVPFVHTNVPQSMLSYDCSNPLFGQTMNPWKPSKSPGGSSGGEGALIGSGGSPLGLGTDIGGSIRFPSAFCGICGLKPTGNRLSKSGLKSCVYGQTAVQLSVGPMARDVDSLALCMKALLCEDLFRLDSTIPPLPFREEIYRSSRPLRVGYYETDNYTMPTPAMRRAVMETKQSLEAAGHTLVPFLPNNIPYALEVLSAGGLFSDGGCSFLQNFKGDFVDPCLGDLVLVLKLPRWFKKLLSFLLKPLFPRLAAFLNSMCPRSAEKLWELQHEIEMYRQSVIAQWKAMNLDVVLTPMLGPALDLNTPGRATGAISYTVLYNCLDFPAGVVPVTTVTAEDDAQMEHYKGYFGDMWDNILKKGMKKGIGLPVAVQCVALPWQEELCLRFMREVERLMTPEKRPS
Summary of the method: (§3)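 Mouse brain membranes or cell lysates (mouse) and human prefrontal cortex or cell membrane fractions (human), 1.0 mg/mL protein, preincubated with inhibitor 30 min at 37 °C, then FP-Rh or HT-01 probe 30 min at 37 °C. SDS-PAGE; MAGL and FAAH activity from in-gel fluorescence band intensity.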

MAGL [4] = target: T4, MAGL (Mus musculus, UniProt O35678); test: In vitro competitive activity-based protein profiling, mouse MAGL; format: biochemical; details: for inhibition at 1 µM: read-out: MAGL % inh. 1 μM (mouse)
T4 construct: mouse brain membrane fraction or cell lysates for mouse assays; from tissue
T4 sequence (O35678 1-303): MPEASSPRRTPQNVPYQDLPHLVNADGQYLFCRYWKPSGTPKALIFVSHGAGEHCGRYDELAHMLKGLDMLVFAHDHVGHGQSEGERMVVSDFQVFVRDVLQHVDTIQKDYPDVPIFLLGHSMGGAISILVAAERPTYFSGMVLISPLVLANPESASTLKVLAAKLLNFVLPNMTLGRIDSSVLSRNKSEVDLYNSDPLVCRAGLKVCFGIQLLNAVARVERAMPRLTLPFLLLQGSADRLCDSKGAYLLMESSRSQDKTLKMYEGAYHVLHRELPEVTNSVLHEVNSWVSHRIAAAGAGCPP
Summary of the method: as §3

MAGL [5] = target: T4, MAGL; test: Mouse brain proteomes from inhibitor treated mice, MAGL; format: in vivo; details: oral gavage, brain 4 h after administration, read-out: MAGL % inh. 5 mg/kg (mouse)
Protocol: Preparation of Mouse Brain Proteomes from Inhibitor Treated Mice.
Inhibitors were administered to wild-type C57Bl/6J by oral gavage in a vehicle of polyethylene glycol. Each animal was sacrificed 4 h following administration and brain proteomes were prepared and analyzed according to previously established methods (See Niphakis, M. J., et al. (2011) ACS Chem. Neurosci. and Long, J. Z., et al. Nat. Chem. Biol. 5:37-44).

SMILES	inhibition at 10 µM (MAGL [1])	inhibition at 10 µM (FAAH [2])	inhibition at 1 µM (FAAH [3])	inhibition at 1 µM (MAGL [4])	inhibition at 5 mg/kg (MAGL [5])	IC50 (FAAH [3])	IC50 (MAGL [4])	inhibition at 1 µM (MAGL [1])	inhibition at 1 µM (FAAH [2])
O=C(O)c1cnn(C(=O)N2CCC3(CCN(Cc4ccc(Cl)cc4)C3)C2)c1 (stereo not drawn) [Example 48, 1-(7-(4-chlorobenzyl)-2,7-diazaspiro[4.4]nonane-2-carbonyl)-1H-pyrazole-4-carboxylic acid]	≥ 75%	0 to 25%	≥ 75%	0 to 25%	–	–	–	–	–
Cc1cc(-c2ccccc2)ccc1CN1CCC2(CCN(C(=O)n3cc(Cl)cn3)C2)C1 (stereo not drawn) [Example 130, (4-chloro-1H-pyrazol-1-yl)(7-((3-methyl-[1,1′-biphenyl]-4-yl)methyl)-2,7-diazaspiro[4.4]nonan-2-yl)methanone]	–	–	≥ 75%	≥ 75%	≥ 75%	≤ 100 nM	≤ 100 nM	–	–
CN(Cc1ccccc1Cl)[C@H]1C[C@@H]2CN(C(=O)n3cc(C(=O)O)cn3)C[C@@H]2C1 [Example 183, 1-(trans-5-((2-chlorobenzyl)(methyl)amino)octahydrocyclopenta[c]pyrrole-2-carbonyl)-1H-pyrazole-4-carboxylic acid]	≥ 75%	25 to 50%	50 to 75%	0 to 25%	–	–	–	–	–
O=C(O)c1cnn(C(=O)N2CCC3(CCN(Cc4cccc(Oc5ccccc5)c4)C3)C2)c1 (stereo not drawn) [Example 185, 1-(7-(3-phenoxybenzyl)-2,7-diazaspiro[4.4]nonane-2-carbonyl)-1H-pyrazole-4-carboxylic acid]	≥ 75%	25 to 50%	≥ 75%	0 to 25%	–	–	–	–	–
CN(Cc1cccc(Oc2ccccc2)c1)[C@H]1C[C@@H]2CN(C(=O)n3cc(C(=O)O)cn3)C[C@@H]2C1 [Example 188, 1-(trans-5-(methyl(3-phenoxybenzyl)amino)octahydrocyclopenta[c]pyrrole-2-carbonyl)-1H-pyrazole-4-carboxylic acid]	≥ 75%	50 to 75%	50 to 75%	0 to 25%	–	–	–	–	–
O=C(c1cnn(C(=O)N2CC3CN(Cc4cccc(Oc5ccc(Cl)cc5)c4)CC3C2)c1)N1CCCC1 (stereo not drawn) [Example 190, (5-(3-(4-chlorophenoxy)benzyl)hexahydropyrrolo[3,4-c]pyrrol-2(1H)-yl)(4-(pyrrolidine-1-carbonyl)-1H-pyrazol-1-yl)methanone]	≥ 75%	≥ 75%	≥ 75%	0 to 25%	–	–	–	–	–
NC(=O)c1cnn(C(=O)N2CC[C@]3(CCN(Cc4ccc(N5CCOCC5)cc4C(F)(F)F)C3)C2)c1 [Example 195, (S)-1-(7-(4-morpholino-2-(trifluoromethyl)benzyl)-2,7-diazaspiro[4.4]nonane-2-carbonyl)-1H-pyrazole-4-carboxamide]	–	–	≥ 75%	≥ 75%	≥ 75%	≤ 100 nM	100 to 1000 nM	–	–
NC(=O)c1cnn(C(=O)N2CCC3(CCN(Cc4cc(N5CCOCC5)cc(C(F)(F)F)c4)C3)C2)c1 (stereo not drawn) [Example 210, 1-(7-(3-morpholino-5-(trifluoromethyl)benzyl)-2,7-diazaspiro[4.4]nonane-2-carbonyl)-1H-pyrazole-4-carboxamide]	–	–	≥ 75%	0 to 25%	–	–	–	≥ 75%	≥ 75%
CN(Cc1ccc(N2CCCC2)cc1C(F)(F)F)[C@@H]1C[C@@H]2CN(C(=O)n3cc(C(N)=O)cn3)C[C@@H]2C1 [Example 220, 1-(cis-5-(methyl(4-(pyrrolidin-1-yl)-2-(trifluoromethyl)benzyl)amino)octahydrocyclopenta[c]pyrrole-2-carbonyl)-1H-pyrazole-4-carboxamide]	≥ 75%	≥ 75%	0 to 25%	0 to 25%	–	–	–	0 to 25%	0 to 25%

The remaining lines, values ahead:

inhibition at 10 µM (MAGL [1])	inhibition at 10 µM (FAAH [2])	inhibition at 1 µM (FAAH [3])	inhibition at 1 µM (MAGL [4])	inhibition at 5 mg/kg (MAGL [5])	IC50 (FAAH [3])	IC50 (MAGL [4])	inhibition at 1 µM (MAGL [1])	inhibition at 1 µM (FAAH [2])	SMILES
≥ 75%	0 to 25%	≥ 75%	0 to 25%	–	–	–	–	–	O=C(O)c1cnn(C(=O)N2CC3CN(Cc4ccc(Cl)cc4)CC3C2)c1 (stereo not drawn) [Example 46, 1-(5-(4-chlorobenzyl)octahydropyrrolo[3,4-c]pyrrole-2-carbonyl)-1H-pyrazole-4-carboxylic acid]
≥ 75%	50 to 75%	≥ 75%	0 to 25%	–	–	–	–	–	O=C(O)c1cnn(C(=O)N2CC3CN(Cc4ccc(C(F)(F)F)cc4)CC3C2)c1 (stereo not drawn) [Example 47, 1-(5-(4-(trifluoromethyl)benzyl)octahydropyrrolo[3,4-c]pyrrole-2-carbonyl)-1H-pyrazole-4-carboxylic acid]
≥ 75%	≥ 75%	≥ 75%	0 to 25%	–	–	–	0 to 25%	≥ 75%	O=C(O)c1cnn(C(=O)N2CC3CN(Cc4cc(Cl)ccc4C(F)(F)F)CC3C2)c1 (stereo not drawn) [Example 196, 1-(5-(5-chloro-2-(trifluoromethyl)benzyl)octahydropyrrolo[3,4-c]pyrrole-2-carbonyl)-1H-pyrazole-4-carboxylic acid]
≥ 75%	≥ 75%	≥ 75%	0 to 25%	–	–	–	0 to 25%	≥ 75%	O=C(O)c1cnn(C(=O)N2CC3CN(Cc4ccc(N5CCCC5)cc4C(F)(F)F)CC3C2)c1 (stereo not drawn) [Example 197, 1-(5-(4-(pyrrolidin-1-yl)-2-(trifluoromethyl)benzyl)octahydropyrrolo[3,4-c]pyrrole-2-carbonyl)-1H-pyrazole-4-carboxylic acid]
≥ 75%	50 to 75%	≥ 75%	0 to 25%	–	–	–	0 to 25%	≥ 75%	O=C(O)c1cnn(C(=O)N2CC3CN(Cc4cc(N5CCCC5)cc(C(F)(F)F)c4)CC3C2)c1 (stereo not drawn) [Example 198, 1-(5-(3-(pyrrolidin-1-yl)-5-(trifluoromethyl)benzyl)octahydropyrrolo[3,4-c]pyrrole-2-carbonyl)-1H-pyrazole-4-carboxylic acid]
